Measurements as given in patent US9125937B2, “Labelled analogues of halobenzamides as multimodal radiopharmaceuticals and their precursors” (INSTITUT NATIONAL DE LA SANTE ET DE LA RECHERCHE MEDICALE …, priority 2008, dated 2015).

Columns and labels:
[1] = test system: B16F10 and B16F0 murine melanoma tumour grafts; experiment: PET imaging of melanoma-bearing mice; type: in vivo, C57BL6 mice
Procedure: Imaging Protocol. Three sets of mice were prepared for PET imaging as described in FIG. 3 in annex: • (Set 1) Four C57BL6 mice bearing both B16F10 and B16F0 murine melanoma tumour grafts on the flanks were anaesthetized with isoflurane and injected with [^18F]10 (200 μCi). Two were imaged immediately during the first hour after injection, allowed to recover from anaesthesia, anaesthetized again at two hours post injection and imaged between two and two-and-a-half hour after injection, allowed to recover from anaesthesia, anaesthetized again at four hours post injection and imaged between four and four-and-a-half hour after injection, then sacrificed and their organs weighed and counted. Two other mice were allowed to recover from anaesthesia, anaesthetized at two hours post injection and imaged between two and two-and-a-half hour after injection, allowed to recover from anaesthesia, anaesthetized again at four hours post injection and imaged between four and four-and-a-half hour after injection, then sacrificed and their organs weighed and counted. • (Set 2) Two C57BL6 mice bearing both B16F10 and B16F0 murine melanoma tumour grafts on the shoulders (so as to avoid contaminating signals originating from with digestive and urinary tracts) were injected with [^18F]10 (200 μCi), imaged under isoflurane anesthesia continuously during two hours, then sacrificed and their organs weighed and counted. • (Set 3) One C57BL6 mouse bearing both B16F10 and B16F0 murine melanoma tumour grafts on the shoulders (so as to avoid contaminating signals originating from with digestive and urinary tracts) was injected with [^18F]10 (600 μCi), allowed to recover, anaesthetized with isoflurane six hours post injection, imaged during 30 minutes between six and six-and-a-half hours post injection.
PET Imaging. […] All values of radioactivity concentrations were normalized for radioactivity decay, as well as by the injected dose of radiotracer, and expressed as percentage of the injected dose per volume of tissue (% ID/cc). […]

[2] = test system: B16F10 and B16F0 murine melanoma tumour grafts; experiment: Ex vivo biodistribution by organ counting after PET imaging; type: in vivo; conditions: two-and-a-half and four-and-a-half hours after i.v. injection, FIG. 4
Procedure: Imaging Protocol. Three sets of mice were prepared for PET imaging as described in FIG. 3 in annex: • (Set 1) Four C57BL6 mice bearing both B16F10 and B16F0 murine melanoma tumour grafts on the flanks were anaesthetized with isoflurane and injected with [^18F]10 (200 μCi). Two were imaged immediately during the first hour after injection, allowed to recover from anaesthesia, anaesthetized again at two hours post injection and imaged between two and two-and-a-half hour after injection, allowed to recover from anaesthesia, anaesthetized again at four hours post injection and imaged between four and four-and-a-half hour after injection, then sacrificed and their organs weighed and counted. […]
Biodistribution. [^18F]10 biodistribution was analysed for the mice of set 1 (n=4) four-and-a-half hours after injection, and for the mice of set 2 (n=2) two-and-a-half hours after injection. Animals were sacrificed by lethal injection of pentobarbital and organs were collected, weighed and radioactivity of each sample was measured on a Cobra gamma counter (Packard). […]

Compound: CCN(CCNC(=O)c1cnc2cc(I)ccc2n1)CCOc1cccnc1[18F] [[^18F]10, [^18F]N-[2-[N-ethyl-N-[2-(2-fluoropyridin-3-yloxy)ethyl]amino]ethyl]-6-iodoquinoxaline-2-carboxamide]
- Uptake (% injected dose per volume tumour graft) in B16F0 relative to B16F10 tumour grafts ([1]; 2 and 4 hours post injection, same animal, FIGS. 5 and 6): more than two-to-three times higher
- Uptake in B16F0 with respect to B16F10 ([1]; dynamic PET, FIG. 7, Set 2): two-to-three times higher
- Contrast between melanoma grafts and surrounding tissue on PET images ([1]; two to two-and-a-half hours and six to six-and-a-half hours post injection): evident contrast
- Biodistribution in selected organs (% ID/CC), tumour targeting [2]: specifically target melanoma tumours in vivo
